Data as given in patent US20250296971A1, “GASTRIC INHIBITORY PEPTIDE RECEPTOR LIGANDS” (priority 2021, published 2025).
Like-named read-outs stand apart in the source and are kept apart here. *1 amine or outer side, *2 acyl side, *3 side chain or, on linkers, in order; H or OH if unused. Where a SMILES comes first, the peptide text is derived from it. Bridges are numbered along the chain shown (N, C = ends). [ ]: non-standard residue; d: D form. The star is where a group is joined. X14 = NC(=O)[C@H](CCCCNC(=O)CN1CCN2CCN3CCN(CC1)CC(=O)[O][In]([O]C(=O)C2)[O]C(=O)C3)NC(=O)CCC(=O)NCCCOCCOCCOCCCN*; DOTA(In) = O=C1CN2CCN3CCN(CC(=O)*)CCN(CC2)CC(=O)[O][In]([O]1)[O]C(=O)C3; DOTA(Lu) = O=C1CN2CCN3CCN(CC(=O)*)CCN(CC2)CC(=O)[O][Lu]([O]1)[O]C(=O)C3; Trp(5-Cl) = N[C@@H](Cc1c[nH]c2ccc(Cl)cc12)C(=O)O; Pyridine(2,6-diCH2) = c1cc(C[*:1])nc(C[*:2])c1; 1Nal = N[C@@H](Cc1cccc2ccccc12)C(=O)O; mXylylene = c1cc(C[*:1])cc(C[*:2])c1; Hyp = O=C(O)[C@@H]1C[C@@H](O)CN1; X1 = O=C(CN1CCC(N[*:1])CC1)[*:2]; Suc = O=C(CCC(=O)[*:2])[*:1]; Ac6c = NC1(C(=O)O)CCCCC1; Thp = NC1(C(=O)O)CCOCC1; Aib = CC(C)(N)C(=O)O

Target: T1, GIPR (CHO-K1-hGIPR cells) (Homo sapiens, UniProt P48546)
T1 construct: host or cells: CHO-K1
T1 sequence (P48546 22-466): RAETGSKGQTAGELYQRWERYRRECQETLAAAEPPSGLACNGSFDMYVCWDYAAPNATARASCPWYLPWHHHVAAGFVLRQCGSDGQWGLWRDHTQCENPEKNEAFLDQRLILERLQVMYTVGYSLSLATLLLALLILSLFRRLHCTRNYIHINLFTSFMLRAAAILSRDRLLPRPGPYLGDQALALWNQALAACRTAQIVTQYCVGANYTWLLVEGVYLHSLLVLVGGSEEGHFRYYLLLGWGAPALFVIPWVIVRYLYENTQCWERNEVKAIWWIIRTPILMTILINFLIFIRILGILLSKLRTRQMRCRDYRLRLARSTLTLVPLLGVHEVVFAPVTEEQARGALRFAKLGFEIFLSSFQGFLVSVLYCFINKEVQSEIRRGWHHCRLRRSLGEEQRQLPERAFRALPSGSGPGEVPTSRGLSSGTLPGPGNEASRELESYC
Assay: FACS binding assay
Conditions: competition with 20 nM GIP-057, 4° C., 1 hour
In short: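 Steps: detach CHO-K1-hGIPR cells (Accutase); wash in PBS/1% FCS; adjust to 500.000 cells per mL; wash ice-cold; incubate APC-streptavidin 1 μg/mL, 30 min on ice; wash twice; acquire on flow cytometer; fit MFI-concentration data with a four-parameter logistic model.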

[1] = read-out: pIC50 Category (converted)

Row | SMILES | IC50 [1] | IC50 (pIC50 Category)
1 | CC[C@H](C)[C@@H]1NC(=O)[C@H](CC(C)C)NC(=O)C(C)(C)NC(=O)[C@@H](NC(=O)[C@@H](CC(C)C)NC(=O)[C@H](CCC(=O)O)NC(=O)[C@@H]2CCCN2C(=O)[C@H](Cc2c[nH]c3ccc(Cl)cc23)NC(=O)[C@H](Cc2c[nH]c3ccccc23)NC(=O)[C@H](CC(=O)O)NC(C)=O)CSCc2cccc(c2)CSC[C@@H](C(=O)NCCCOCCOCCOCCCNC(=O)CCC(=O)N[C@@H](CCCCNC(=O)CN2CCN3CCN4CCN(CC2)CC(=O)[O][In]([O]C(=O)C3)[O]C(=O)C4)C(N)=O)NC1=O [GIP-164, Ac-Asp-Trp-5Clw-Pro-Glu-leu-[Cys(3MeBn)-Aib-Leu-Ile-Cys]-Ttds-Lys(InDOTA)-NH2] (Ac-DW[Trp(5-Cl)]PE[dL]C[Aib]LIC-X14; linker 7-11 via mXylylene) | < 10 nM | 
2 | CC[C@H](C)[C@@H]1NC(=O)[C@H](CC(C)C)NC(=O)C(C)(C)NC(=O)[C@@H](NC(=O)[C@@H](CC(C)C)NC(=O)[C@H](CCC(=O)O)NC(=O)[C@@H]2CCCN2C(=O)[C@H](Cc2cccc3ccccc23)NC(=O)[C@H](Cc2c[nH]c3ccccc23)NC(=O)[C@H](CC(=O)O)NC(C)=O)CSCc2cccc(c2)CSC[C@@H](C(=O)NCCCOCCOCCOCCCNC(=O)CCC(=O)N[C@@H](CCCCNC(=O)CN2CCN3CCN4CCN(CC2)CC(=O)[O][In]([O]C(=O)C3)[O]C(=O)C4)C(N)=O)NC1=O [GIP-165, Ac-Asp-Trp-1Ni-Pro-Glu-leu-[Cys(3MeBn)-Aib-Leu-Ile-Cys]-Ttds-Lys(InDOTA)-NH2] (Ac-DW[1Nal]PE[dL]C[Aib]LIC-X14; linker 7-11 via mXylylene) | < 10 nM | 
3 | CC[C@H](C)[C@@H]1NC(=O)[C@H](CC(C)C)NC(=O)C2(CCCCC2)NC(=O)[C@@H](NC(=O)[C@@H](CC(C)C)NC(=O)[C@H](CCC(=O)O)NC(=O)[C@@H]2CCCN2C(=O)[C@H](Cc2cccc3ccccc23)NC(=O)[C@H](Cc2c[nH]c3ccccc23)NC(=O)[C@H](CC(=O)O)NC(C)=O)CSCc2cccc(c2)CSC[C@@H](C(=O)NCCCOCCOCCOCCCNC(=O)CCC(=O)N[C@@H](CCCCNC(=O)CN2CCN3CCN4CCN(CC2)CC(=O)[O][In]([O]C(=O)C3)[O]C(=O)C4)C(N)=O)NC1=O [GIP-166, Ac-Asp-Trp-1Ni-Pro-Glu-leu-[Cys(3MeBn)-Egz-Leu-Ile-Cys]-Ttds-Lys(InDOTA)-NH2] (Ac-DW[1Nal]PE[dL]C[Ac6c]LIC-X14; linker 7-11 via mXylylene) | < 10 nM | 
4 | CC[C@H](C)[C@@H]1NC(=O)[C@H](CC(C)C)NC(=O)C2(CCOCC2)NC(=O)[C@@H](NC(=O)[C@@H](CC(C)C)NC(=O)[C@H](CCC(=O)O)NC(=O)[C@@H]2C[C@@H](O)CN2C(=O)[C@H](Cc2c[nH]c3ccc(Cl)cc23)NC(=O)[C@H](Cc2c[nH]c3ccccc23)NC(=O)CCC(=O)O)CSCc2cccc(n2)CSC[C@@H](C(=O)NC2CCN(CC(=O)N[C@@H](CCCCNC(=O)CN3CCN4CCN5CCN(CC3)CC(=O)[O][In]([O]C(=O)C4)[O]C(=O)C5)C(N)=O)CC2)NC1=O [GIP-168, HO-Succinyl-Trp-5Clw-Hyp-Glu-leu-[Cys(2Lut)-Thp-Leu-Ile-Cys]-APAc-Lys(InDOTA)-NH2] (Suc-W[Trp(5-Cl)][Hyp]E[dL]C[Thp]LIC[X1]K(DOTA(In))-NH2; linker 6-10 via Pyridine(2,6-diCH2)) | < 10 nM | 
5 | CC[C@H](C)[C@@H]1NC(=O)[C@H](CC(C)C)NC(=O)C2(CCOCC2)NC(=O)[C@@H](NC(=O)[C@@H](CC(C)C)NC(=O)[C@H](CCC(=O)O)NC(=O)[C@@H]2C[C@@H](O)CN2C(=O)[C@H](Cc2c[nH]c3ccc(Cl)cc23)NC(=O)[C@H](Cc2c[nH]c3ccccc23)NC(=O)CCC(=O)O)CSCc2cccc(n2)CSC[C@@H](C(=O)NC2CCN(CC(=O)N[C@@H](CCCCNC(=O)CN3CCN4CCN5CCN(CC3)CC(=O)[O][Lu]([O]C(=O)C4)[O]C(=O)C5)C(N)=O)CC2)NC1=O [GIP-170, HO-Succinyl-Trp-5Clw-Hyp-Glu-leu-[Cys(2Lut)-Thp-Leu-Ile-Cys]-APAc-Lys(LuDOTA)-NH2] (Suc-W[Trp(5-Cl)][Hyp]E[dL]C[Thp]LIC[X1]K(DOTA(Lu))-NH2; linker 6-10 via Pyridine(2,6-diCH2)) |  | < 10 nM
